# Laboratory results published in US20250262201A1, “COMPOUNDS AND METHODS USEFUL FOR STABILIZING PHENYLALANINE HYDROXYLASE MUTATIONS” (Agios Pharmaceuticals, Inc., priority 2022, published 2025).
# Molecular target: T1, human PAH with the R408W mutation (Homo sapiens, UniProt P00439, R408W)
# T1 construct: expressed in transfected cells
# T1 sequence (P00439 1-452 R408W): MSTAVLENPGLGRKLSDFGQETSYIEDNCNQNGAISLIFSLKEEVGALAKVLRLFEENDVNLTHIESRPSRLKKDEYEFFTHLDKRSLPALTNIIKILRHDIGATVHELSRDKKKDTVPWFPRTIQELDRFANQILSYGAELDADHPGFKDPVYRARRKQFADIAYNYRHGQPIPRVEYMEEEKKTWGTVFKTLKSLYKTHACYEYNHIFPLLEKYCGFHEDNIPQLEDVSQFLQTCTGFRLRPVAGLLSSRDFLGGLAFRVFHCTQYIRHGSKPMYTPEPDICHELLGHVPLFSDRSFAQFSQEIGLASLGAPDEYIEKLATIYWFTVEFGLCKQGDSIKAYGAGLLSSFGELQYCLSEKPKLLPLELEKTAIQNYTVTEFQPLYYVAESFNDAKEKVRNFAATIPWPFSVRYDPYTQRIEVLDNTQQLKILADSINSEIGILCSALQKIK
# Assay: Cell Based Phenylalanine Flux Assay
# Design: scale not given here
# Settings: A375 R408W cells, 24 hrs with compound, then 20 μM sepiapterin and 800 μM 13C9,15N-Phenylalanine for 4 hours; 13C-Tyrosine by LC-MS; average where tested multiple times
row,AC50,Structure (SMILES)
1,"E, E",COc1ccc(-c2nc(C(F)F)c(C(=O)N3CCc4[nH]cnc4C3c3ncc4ccccc4n3)o2)nc1 (centres unmarked)

# Same assay, conditions: A375 R408W cells, 24 hrs with compound, then 20 μM sepiapterin and 800 μM 13C9,15N-Phenylalanine for 4 hours; 13C-Tyrosine by LC-MS; average where tested multiple times; read-out: AC50
row,AC50 [nM],Structure (SMILES)
1,> 5000,O=C(c1oc(-c2ccccn2)nc1C1CC1)N1CCCc2[nH]cnc2C1c1cn2ccccc2n1 (centres unmarked)
2,> 5000,CC1CN(C(=O)c2nnc(-c3cnn(C)c3)o2)C(c2cc3ccccc3cn2)c2nc[nH]c21 (centres unmarked)
3,1000 to 5000,Cc1ncoc1C(=O)N1CCc2[nH]cnc2C1c1cc2ccccc2cn1 (centres unmarked)
4,1000 to 5000,Cc1nnc(C(=O)N2CCc3[nH]cnc3C2c2cn3ccccc3n2)o1 (centres unmarked)
5,> 5000,CC1CN(C(=O)c2nnc(N3CCC(F)CC3)o2)C(c2cc3ccccc3cn2)c2nc[nH]c21 (centres unmarked)
6,1000 to 5000,CC(C)(O)c1ccc2c(C(=O)N3CCc4[nH]cnc4C3c3ccc4ccccc4n3)cnn2c1 (centres unmarked)
7,> 5000,COCc1ncc(C(=O)N2CCc3[nH]cnc3C2c2ccc3ccccc3n2)s1 (centres unmarked)
8,1000 to 5000,O=C(c1ccn2ncccc12)N1CCc2[nH]cnc2C1c1ccc2ccccc2n1 (centres unmarked)
9,1000 to 5000,O=C(Cc1cnn2ccccc12)N1CCc2[nH]cnc2C1c1ccc2ccccc2n1 (centres unmarked)

# Same assay, conditions: A375 cells expressing human R408W PAH; 24 hrs compound incubation; 13C-Tyrosine by LC-MS; average where tested multiple times; read-out: AC50
row,AC50 [nM],Structure (SMILES)
1,< 500,"CN1CCN(c2ccc3c(C(=O)N4CCc5[nH]cnc5[C@H]4c4cc5ccccc5cn4)cnn3c2)CC1 [Example 457, (R)-(4-(isoquinolin-3-yl)-6,7-dihydro-1H-imidazo[4,5-c]pyridin-5(4H)-yl)(6-(4-methylpiperazin-1-yl)pyrazolo[1,5-a]pyridin-3-yl)methanone]"
2,> 5000,"O=C(CCc1nccs1)N1CCc2[nH]cnc2C1c1ccc2ccccc2n1 (stereo in doubt) [Example 272, (S)-1-(4-(quinolin-2-yl)-6,7-dihydro-1H-imidazo[4,5-c]pyridin-5(4H)-yl)-3-(thiazol-2-yl)propan-1-one]"
3,1000 to 5000,"C[C@H]1CN(C(=O)c2nnc(-c3ccc(F)cn3)o2)[C@H](c2cc3ccccc3cn2)c2nc[nH]c21 [Example 496, (5-(5-fluoropyridin-2-yl)-1,3,4-oxadiazol-2-yl)((4R,7S)-4-(isoquinolin-3-yl)-7-methyl-6,7-dihydro-1H-imidazo[4,5-c]pyridin-5(4H)-yl)methanone]"
4,> 5000,"O=C(c1nnc(-c2ccc(F)cn2)o1)N1CCc2[nH]cnc2[C@@H]1c1cc2ccccc2cn1 [Example 341, (S)-(5-(5-fluoropyridin-2-yl)-1,3,4-oxadiazol-2-yl)(4-(isoquinolin-3-yl)-6,7-dihydro-1H-imidazo[4,5-c]pyridin-5(4H)-yl)methanone]"
5,< 500,"CC(C)(F)c1nnc(C(=O)N2CCc3[nH]cnc3[C@H]2c2cc3ccccc3cn2)o1 [Example 419, (R)-(5-(2-fluoropropan-2-yl)-1,3,4-oxadiazol-2-yl)(4-(isoquinolin-3-yl)-6,7-dihydro-1H-imidazo[4,5-c]pyridin-5(4H)-yl)methanone]"
6,< 500,"O=C(c1cn[nH]c1C(F)F)N1CCc2[nH]cnc2C1c1ccc2ccccc2n1 (stereo in doubt) [Example 259, (R)-(5-(difluoromethyl)-1H-pyrazol-4-yl)(4-(quinolin-2-yl)-6,7-dihydro-1H-imidazo[4,5-c]pyridin-5(4H)-yl)methanone]"
7,1000 to 5000,"C[C@H]1CN(C(=O)c2nnc(-c3ccc(F)cn3)o2)[C@@H](c2cc3ccccc3cn2)c2nc[nH]c21 [Example 497, (5-(5-fluoropyridin-2-yl)-1,3,4-oxadiazol-2-yl)((4S,7S)-4-(isoquinolin-3-yl)-7-methyl-6,7-dihydro-1H-imidazo[4,5-c]pyridin-5(4H)-yl)methanone]"
8,500 to 1000,"C[C@H]1CN(C(=O)c2nnc(C(C)(C)F)o2)[C@H](c2cc3ccccc3cn2)c2nc[nH]c21 [Example 499, (5-(2-fluoropropan-2-yl)-1,3,4-oxadiazol-2-yl)((4R,7S)-4-(isoquinolin-3-yl)-7-methyl-6,7-dihydro-1H-imidazo[4,5-c]pyridin-5(4H)-yl)methanone]"
9,500 to 1000,"C[C@H]1CN(C(=O)c2nnc(C3CC3)o2)[C@H](c2cc3ccccc3cn2)c2nc[nH]c21 [Example 511, (5-cyclopropyl-1,3,4-oxadiazol-2-yl)((4R,7S)-4-(isoquinolin-3-yl)-7-methyl-6,7-dihydro-1H-imidazo[4,5-c]pyridin-5(4H)-yl)methanone]"
10,< 500,"O=C(c1nnc(-c2ccc(F)cn2)o1)N1CCc2[nH]cnc2[C@H]1c1cc2ccccc2cn1 [Example 340, (R)-(5-(5-fluoropyridin-2-yl)-1,3,4-oxadiazol-2-yl)(4-(isoquinolin-3-yl)-6,7-dihydro-1H-imidazo[4,5-c]pyridin-5(4H)-yl)methanone]"
11,< 500,"O=C(c1cnco1)N1CCc2[nH]cnc2[C@H]1c1cc2ccccc2cn1 [Example 320, (R)-(4-(isoquinolin-3-yl)-6,7-dihydro-1H-imidazo[4,5-c]pyridin-5(4H)-yl)(oxazol-5-yl)methanone]"
12,> 5000,"Cc1nnc(C(=O)N2CCc3[nH]cnc3[C@@H]2c2cc3ccccc3cn2)o1 [Example 319, (S)-(4-(isoquinolin-3-yl)-6,7-dihydro-1H-imidazo[4,5-c]pyridin-5(4H)-yl)(5-methyl-1,3,4-oxadiazol-2-yl)methanone]"
13,1000 to 5000,"C[C@@H]1CN(C(=O)c2cnc(-c3ccccn3)o2)[C@H](c2cc3ccccc3cn2)c2nc[nH]c21 [Example 384, ((4R,7R)-4-(isoquinolin-3-yl)-7-methyl-6,7-dihydro-1H-imidazo[4,5-c]pyridin-5(4H)-yl)(2-(pyridin-2-yl)oxazol-5-yl)methanone]"

# More lines, now with the values behind:
row,Structure (SMILES),AC50 [nM]
1,"CC(C)(C)c1ncc(C(=O)N2CCc3[nH]cnc3[C@@H]2c2cn3ccccc3n2)s1 [Example 246, (S)-(2-(tert-butyl)thiazol-5-yl)(4-(imidazo[1,2-a]pyridin-2-yl)-6,7-dihydro-1H-imidazo[4,5-c]pyridin-5(4H)-yl)methanone]",> 5000
2,"O=C(CC1CC1)N1CCc2[nH]cnc2[C@@H]1c1cn2ccccc2n1 [Example 237, (S)-2-cyclopropyl-1-(4-(imidazo[1,2-a]pyridin-2-yl)-6,7-dihydro-1H-imidazo[4,5-c]pyridin-5(4H)-yl)ethanone]",> 5000
3,"O=C(c1cnc(-c2ccccn2)s1)N1CCc2[nH]cnc2[C@@H]1c1cc2ccccc2nn1 [Example 206, (R)-(4-(cinnolin-3-yl)-6,7-dihydro-1H-imidazo[4,5-c]pyridin-5(4H)-yl)(2-(pyridin-2-yl)thiazol-5-yl)methanone]",1000 to 5000
4,"Cc1ccc(-c2nnc(C(=O)N3CCc4[nH]cnc4[C@@H]3c3ncc4ccccc4n3)o2)nc1 [Example 172, (R)-(5-(5-methylpyridin-2-yl)-1,3,4-oxadiazol-2-yl)(4-(quinazolin-2-yl)-6,7-dihydro-1H-imidazo[4,5-c]pyridin-5(4H)-yl)methanone]",1000 to 5000
5,"Cc1nc(C(C)(C)C#N)oc1C(=O)N1CCc2[nH]cnc2C1c1ccc2ccccc2n1 (stereo in doubt) [Example 117, (S)-2-methyl-2-(4-methyl-5-(4-(quinolin-2-yl)-4,5,6,7-tetrahydro-1H-imidazo[4,5-c]pyridine-5-carbonyl)oxazol-2-yl)propanenitrile]",1000 to 5000
6,"O=C(c1oc(C2(O)CC2)nc1C(F)F)N1CCc2[nH]cnc2C1c1ccc2ccccc2n1 (stereo in doubt) [Example 129, (S)-(4-(difluoromethyl)-2-(1-hydroxycyclopropyl)oxazol-5-yl)(4-(quinolin-2-yl)-6,7-dihydro-1H-imidazo[4,5-c]pyridin-5(4H)-yl)methanone]",1000 to 5000
7,"Cc1nc(C(C)(C)C)oc1C(=O)N1CCc2[nH]cnc2C1c1ccc2ccccc2n1 (stereo in doubt) [Example 7, (R)-(2-(tert-butyl)-4-methyloxazol-5-yl)(4-(quinolin-2-yl)-6,7-dihydro-1H-imidazo[4,5-c]pyridin-5(4H)-yl)methanone]",500 to 1000
8,Cn1ncnc1C(=O)N1CCc2[nH]cnc2[C@@H]1c1ccc2ccccc2n1 [Example 79],> 5000
9,"Cn1ccc(-c2nnc(C(=O)N3CCc4[nH]cnc4[C@H]3c3ncc4ccccc4n3)o2)n1 [Example 165, (S)-(5-(1-methyl-1H-pyrazol-3-yl)-1,3,4-oxadiazol-2-yl)(4-(quinazolin-2-yl)-6,7-dihydro-1H-imidazo[4,5-c]pyridin-5(4H)-yl)methanone]",500 to 1000
10,"CC(C)(C)c1ncc(C(=O)N2CCc3[nH]cnc3C2c2ccc3ccccc3n2)s1 (stereo in doubt) [Example 4, (S)-(2-(tert-butyl)thiazol-5-yl)(4-(quinolin-2-yl)-6,7-dihydro-1H-imidazo[4,5-c]pyridin-5(4H)-yl)methanone]",> 5000
11,"O=C(c1cncs1)N1CCc2[nH]cnc2[C@@H]1c1ccc2ccccc2c1 [Example 222, (S)-(4-(naphthalen-2-yl)-6,7-dihydro-1H-imidazo[4,5-c]pyridin-5(4H)-yl)(thiazol-5-yl)methanone]",> 5000
12,"O=C(c1cnc(-c2ccccn2)s1)N1CCc2[nH]cnc2C1c1ccc2ccccc2n1 (stereo in doubt) [Example 1, (R)-(2-(pyridin-2-yl)thiazol-5-yl)(4-(quinolin-2-yl)-6,7-dihydro-1H-imidazo[4,5-c]pyridin-5(4H)-yl)methanone]",< 500
